Data taken from ChEMBL document CHEMBL1201862, “PubChem BioAssay data set” (2004).
Values joined by “and” are separate entries in the source; they are usually repeats but may differ in a detail not shown here. Equal entries are not always repeated.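 Five concentrations, 48 hours, 96-well plates. GI50 marks 50% less growth.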 Active and inactive are the calls of the source. No stated cut-off is given here; in the data, active = GI50 up to about 1.1 µM and inactive = higher.

Columns and labels:
Assay in all cases: NCI-60 cell line screen, 48 h
786-0 = test system: 786-0
A549 = test system: A549
HCC 2998 = test system: HCC 2998
HCT-15 = test system: HCT-15
HL-60 = test system: HL-60
HOP-62 = test system: HOP-62
HOP-92 = test system: HOP-92
IGROV-1 = test system: IGROV-1
KM12 = test system: KM12
LOX IMVI = test system: LOX IMVI
M14 = test system: M14
MDA-MB-435 = test system: MDA-MB-435
Malme-3M = test system: Malme-3M
NCI-H23 = test system: NCI-H23
OVCAR-8 = test system: OVCAR-8
RXF 393 = test system: RXF 393
SN12C = test system: SN12C
UACC-62 = test system: UACC-62
NCI-H522 = test system: NCI-H522
SF-539 = test system: SF-539

Structure (SMILES) | GI50 (786-0) | GI50 (A549) | GI50 (HCC 2998) | GI50 (HCT-15) | GI50 (HL-60) | GI50 (HOP-62) | GI50 (HOP-92) | GI50 (IGROV-1) | GI50 (KM12) | GI50 (LOX IMVI) | GI50 (M14) | GI50 (MDA-MB-435) | GI50 (Malme-3M) | GI50 (NCI-H23) | GI50 (OVCAR-8) | GI50 (RXF 393) | GI50 (SN12C) | GI50 (UACC-62) | GI50 (NCI-H522) | GI50 (SF-539)
Cn1c(=O)c2nc(Nc3ccccc3)[nH]c2n(C)c1=O | > 10 µM (inactive) | > 10 µM (inactive) | > 10 µM (inactive) | > 10 µM | > 10 µM (inactive) | > 10 µM (inactive) | > 10 µM (inactive) | > 10 µM (inactive) | > 10 µM (inactive) | > 10 µM (inactive) | > 10 µM (inactive) | > 10 µM (inactive) | > 10 µM (inactive) | > 10 µM (inactive) | > 10 µM (inactive) | > 10 µM (inactive) | > 10 µM (inactive) | > 10 µM (inactive) |  | 
Cc1nc(=O)[nH]c2s/c(=N/C3CCCCC3)n(C3CCCCC3)c(=O)c12 | > 100 µM (inactive) | > 100 µM (inactive) | > 100 µM (inactive) | > 100 µM | > 100 µM (inactive) | > 100 µM (inactive) | > 100 µM (inactive) | > 100 µM (inactive) | > 100 µM (inactive) | > 100 µM (inactive) | > 100 µM (inactive) | > 100 µM (inactive) | > 100 µM (inactive) | > 100 µM (inactive) | > 100 µM (inactive) |  | > 100 µM (inactive) | > 100 µM (inactive) | > 100 µM (inactive) | > 100 µM (inactive)
NCCCc1nonc1C(=O)O | > 100 µM (inactive) | > 100 µM (inactive) | > 100 µM (inactive) | > 100 µM | > 100 µM (inactive) | > 100 µM (inactive) | > 100 µM (inactive) | > 100 µM (inactive) | > 100 µM (inactive) | > 100 µM (inactive) | > 100 µM (inactive) | > 100 µM (inactive) | > 100 µM (inactive) | > 100 µM (inactive) | > 100 µM (inactive) | > 100 µM (inactive) | > 100 µM (inactive) | > 100 µM (inactive) |  | > 100 µM (inactive)
N#CC(C#N)=Cc1ccc2c(c1)OC(Cl)O2 (stereo not drawn) | 20.3 µM (inactive) | 38.8 µM (inactive) |  | 19.9 µM | 6.92 µM (inactive) |  |  |  | 20.4 µM (inactive) | 18.4 µM (inactive) | 21.4 µM (inactive) | 14.3 µM (inactive) | 18.1 µM (inactive) | 31.1 µM (inactive) | 31.6 µM (inactive) | 28.5 µM (inactive) | 24.9 µM (inactive) | 22.5 µM (inactive) | > 10 µM (inactive) | 20.4 µM (inactive)
COC(=O)CCCC(=O)NC1=C(Nc2ccc(OC)cc2)C(=O)c2ccccc2C1=O | 34.6 µM (inactive) | 22.3 µM (inactive) | 20.6 µM (inactive) | 23.8 µM | 21.7 µM (inactive) |  | 71 µM (inactive) | 18 µM (inactive) | 28.8 µM (inactive) | 25.9 µM (inactive) | 19.4 µM (inactive) | 18.2 µM (inactive) | 3.4 µM (inactive) | 20.4 µM (inactive) | 31 µM (inactive) |  | 27.7 µM (inactive) | 12.8 µM (inactive) | 37.5 µM (inactive) | 19.3 µM (inactive)
CC(C)(CN)SCc1ccccc1 | > 100 µM (inactive) | > 100 µM (inactive) |  | > 100 µM | > 100 µM (inactive) | > 100 µM (inactive) | > 100 µM (inactive) | > 100 µM (inactive) | > 100 µM (inactive) | > 100 µM (inactive) | > 100 µM (inactive) | > 100 µM (inactive) | > 100 µM (inactive) |  | > 100 µM (inactive) | > 100 µM (inactive) | > 100 µM (inactive) | > 100 µM (inactive) | > 100 µM (inactive) | > 100 µM (inactive)
CCCCC1=C(C(=O)N2CCOCC2)C2(OCCO2)C1Cl (stereo not drawn) | 36.4 µM (inactive) | 20.6 µM (inactive) |  | 26.9 µM | > 100 µM (inactive) | 35.2 µM (inactive) | 50.2 µM (inactive) | 32.4 µM (inactive) | 20.7 µM (inactive) | 28.2 µM (inactive) | 16.9 µM (inactive) | 21.7 µM (inactive) | 33.6 µM (inactive) | 25.5 µM (inactive) | 45.9 µM (inactive) | 29.5 µM (inactive) | 22.2 µM (inactive) | 31.6 µM (inactive) | 27.1 µM (inactive) | 16.4 µM (inactive)
C=C(C(=O)O)[C@@H]1C[C@@H]2O[C@H]1[C@@H](O)[C@@H](C)CCCC(C)=CCC[C@@]2(C)O | 56.6 µM (inactive) and > 69.5 µM (inactive) | > 100 µM (inactive) | > 100 µM (inactive) | > 100 µM and 78.3 µM |  | > 100 µM (inactive) | > 100 µM (inactive) and 99.8 µM (inactive) | 92.9 µM (inactive) and > 75 µM (inactive) | > 100 µM (inactive) | 41.3 µM (inactive) and > 47.2 µM (inactive) | > 100 µM (inactive) and > 77.4 µM (inactive) | 71.8 µM (inactive) and > 81.3 µM (inactive) | > 100 µM (inactive) and > 72.9 µM (inactive) | > 100 µM (inactive) | > 100 µM (inactive) | > 100 µM (inactive) and > 89.1 µM (inactive) | > 100 µM (inactive) | > 100 µM (inactive) and > 90.4 µM (inactive) |  | 87.5 µM (inactive)
CC[C@@H]1C[C@@H](O)[C@@H]2[C@H](O)[C@H](O)CN2C1 | > 100 µM (inactive) | > 100 µM (inactive) | > 100 µM (inactive) | > 100 µM | > 100 µM (inactive) |  | > 100 µM (inactive) | > 100 µM (inactive) | > 100 µM (inactive) | > 100 µM (inactive) | > 100 µM (inactive) | > 100 µM (inactive) | > 100 µM (inactive) | > 100 µM (inactive) | > 100 µM (inactive) |  | > 100 µM (inactive) | > 100 µM (inactive) | > 100 µM (inactive) | > 100 µM (inactive)
CC1(C)C2CCC1(C)C(N/C(=C(/C(Cl)=C(Cl)Cl)[N+](=O)[O-])n1nnc3ccccc31)C2 (stereo not drawn) | 41.1 µM (inactive) | 33.7 µM (inactive) | 40.6 µM (inactive) | 27.7 µM |  | 24.9 µM (inactive) |  |  | 21.8 µM (inactive) | 33.2 µM (inactive) | 37.7 µM (inactive) | 21.4 µM (inactive) | 19.3 µM (inactive) | 22.4 µM (inactive) | 29.1 µM (inactive) | 19.2 µM (inactive) | 41.8 µM (inactive) | 20 µM (inactive) |  | 33.8 µM (inactive)
Clc1ccc(C2=CC(c3ccccc3)N3C(=N[C@H]4CCCC[C@@H]43)N2)cc1 (stereo partly drawn) | 2.79 µM (inactive) | 5.47 µM (inactive) | 2.08 µM (inactive) | 4.08 µM | 2.82 µM (inactive) |  | 4.68 µM (inactive) | 3.39 µM (inactive) | 2.07 µM (inactive) | 6.46 µM (inactive) | 2.98 µM (inactive) | 7.57 µM (inactive) | 2.67 µM (inactive) | 7.82 µM (inactive) | 2.7 µM (inactive) | 2.47 µM (inactive) |  | 5.82 µM (inactive) |  | 6.08 µM (inactive)
S=C(Nc1ccc(/N=N/c2ccccc2)cc1)SCc1ccccc1 | 17.8 µM (inactive) | 16.9 µM (inactive) |  | 15.1 µM |  | 20.2 µM (inactive) | 13.4 µM (inactive) | 17.7 µM (inactive) | 16.2 µM (inactive) | 18.7 µM (inactive) | 17.3 µM (inactive) | 16.2 µM (inactive) | 11 µM (inactive) | 16.4 µM (inactive) | 7.35 µM (inactive) | 19.6 µM (inactive) | 15.7 µM (inactive) | 17.8 µM (inactive) | 16.9 µM (inactive) | 18.4 µM (inactive)
CC(=O)OCC1OC(N2C(=O)CC(N)=Nc3ccccc32)C(OC(C)=O)C(OC(C)=O)C1OC(C)=O (stereo not drawn) | > 100 µM (inactive) | > 100 µM (inactive) | 75.7 µM (inactive) | 44.8 µM | 67.3 µM (inactive) | 81.7 µM (inactive) | > 100 µM (inactive) | 45.1 µM (inactive) | 45.2 µM (inactive) | 37.5 µM (inactive) | 38.6 µM (inactive) | 30.6 µM (inactive) | 28.9 µM (inactive) | 43.2 µM (inactive) | 32.4 µM (inactive) | 23.1 µM (inactive) | 58.2 µM (inactive) | 34.6 µM (inactive) |  | 23.2 µM (inactive)
COc1ccc(NC(=O)Oc2cc(C)c3ccc(=O)cc-3o2)c(OC)c1.COc1ccc(NC(=O)Oc2ccc3c(C)cc(=O)oc3c2)c(OC)c1 | > 100 µM (inactive) | > 100 µM (inactive) | 82.8 µM (inactive) | > 100 µM |  | > 100 µM (inactive) |  | > 100 µM (inactive) | 78.7 µM (inactive) |  | > 100 µM (inactive) | > 100 µM (inactive) | > 100 µM (inactive) | > 100 µM (inactive) | > 100 µM (inactive) | > 100 µM (inactive) | > 100 µM (inactive) | > 100 µM (inactive) | > 100 µM (inactive) | > 100 µM (inactive)
C=CCc1ccccc1CC1(OCC)OC(=O)c2ccccc21 (stereo not drawn) | > 100 µM (inactive) | > 100 µM (inactive) | > 100 µM (inactive) | 42.3 µM |  | 94 µM (inactive) | 33.8 µM (inactive) | > 100 µM (inactive) |  |  | 66.1 µM (inactive) | 28.8 µM (inactive) |  | 56.5 µM (inactive) | > 100 µM (inactive) | > 100 µM (inactive) | 87.7 µM (inactive) | > 100 µM (inactive) | 67.8 µM (inactive) | > 100 µM (inactive)
O=C1c2ccccc2-c2oc(=O)c3ccccc3c21 | > 100 µM (inactive) |  |  | > 100 µM | > 100 µM (inactive) | > 100 µM (inactive) | > 100 µM (inactive) | 32.7 µM (inactive) | > 100 µM (inactive) | > 100 µM (inactive) | > 100 µM (inactive) | > 100 µM (inactive) |  | > 100 µM (inactive) | > 100 µM (inactive) | > 100 µM (inactive) | > 100 µM (inactive) | > 100 µM (inactive) | 0.962 µM (active) | > 100 µM (inactive)
